Laboratory results taken from patent US9695155B2, “Herbicidal substituted pyrimidinyloxy benzene compounds” (E. I. DU PONT DE NEMOURS AND COMPANY, priority 2013, dated 2017).

Assays:
wheat = assay: Test A preemergence; assay type: in vivo, Triticum aestivum; conditions: for Wheat plant response rating: 500 g ai/ha
How it was run: (§1)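 Injury scores run from 0, no effect, to 100, complete control, judged by eye against untreated plants roughly 10 days after treatment. Chemicals carried a surfactant in a non-phytotoxic solvent and went onto loam–sand soil preemergence or onto one- to two-leaf seedlings postemergence.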

sedge, umbrella = assay: Test B flooded paddy test; assay type: in vivo, Cyperus difformis; conditions: Flood, 250 g ai/ha; 0 to 100 scale where 0 is no effect and 100 is complete control
How it was run: (§2)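 Plants at 2-leaf stage; pots flooded to 3 cm above soil and compound applied directly into paddy water, depth held throughout. After 13 to 15 days in greenhouse, visual rating versus controls on 0 (no effect) to 100 (complete control) scale.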

galium = assay: Test C postemergence; assay type: in vivo, Galium aparine
How it was run: (§3)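 Seeds were sown in loam–sand blend and sprayed preemergence, while plants at 1- to 4-leaf stage (2–18 cm) in peat-based medium received postemergence sprays; test chemicals were formulated in a non-phytotoxic solvent with surfactant. After 13–15 days in a greenhouse, injury was rated visually against controls, 0 (no effect) to 100 (complete control).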

large (Lg) crabgrass [1] = assay: Test C postemergence; assay type: in vivo, Digitaria sanguinalis
How it was run: as §3

blackgrass = assay: Test C postemergence; assay type: in vivo, Alopecurus myosuroides
How it was run: as §3

rice = assay: Test B flooded paddy test; assay type: in vivo, Oryza sativa; conditions: Flood, 250 g ai/ha; 0 to 100 scale where 0 is no effect and 100 is complete control
How it was run: as §2

soybean = assay: Test C postemergence; assay type: in vivo, Glycine max
How it was run: as §3

lambsquarters = assay: Test C postemergence; assay type: in vivo, Chenopodium album
How it was run: as §3

Italian ryegrass = assay: Test C postemergence; assay type: in vivo, Lolium multiflorum
How it was run: as §3

large (Lg) crabgrass [2] = assay: Test A postemergence; assay type: in vivo, Digitaria sanguinalis
How it was run: as §1

pigweed = assay: Test A postemergence; assay type: in vivo, Amaranthus retroflexus; conditions: 0 to 100 scale where 0 is no effect and 100 is complete control
How it was run: as §1

barnyardgrass [3] = assay: Test A preemergence; assay type: in vivo, Echinochloa crus-galli; conditions: for Barnyardgrass plant response rating: 500 g ai/ha
How it was run: as §1

yellow nutsedge = assay: Test C postemergence; assay type: in vivo, Cyperus esculentus
How it was run: as §3

ragweed = assay: Test C postemergence; assay type: in vivo, Ambrosia elatior
How it was run: as §3

barnyardgrass [4] = assay: Test C postemergence; assay type: in vivo, Echinochloa crus-galli
How it was run: as §3

[5] = 0 to 100 scale where 0 is no effect and 100 is complete control
[6] = 31 g ai/ha, postemergence, visual rating, scale 0 to 100 (0 no effect, 100 complete control), 13 to 15 days
[7] = 125 g ai/ha, postemergence, visual rating, scale 0 to 100 (0 no effect, 100 complete control)
[8] = Postemergence, 62 g ai/ha, scale 0 to 100 (0 no effect, 100 complete control), 13 to 15 days
[9] = 125 g ai/ha, 0 to 100 scale where 0 is no effect and 100 is complete control
[10] = Postemergence, 62 g ai/ha, scale 0 to 100 (0 no effect, 100 complete control)
[11] = 0 to 100 scale, 0 no effect, 100 complete control, approx. 10 days
[12] = Postemergence, 31 g ai/ha, scale 0 to 100 (0 no effect, 100 complete control), 13 to 15 days

With N#Cc1cnn(-c2c(C#N)cccc2Oc2ncc(Cl)cn2)c1 [Compound 200] the “Wheat plant response rating (0 to 100 scale)” value (wheat; 125 g ai/ha) was 30, the “Wheat plant response rating” value (wheat; [5]) was 50 and the “Plant response rating, Sedge, Umbrella” value (sedge, umbrella) was 85. For the same compound, the “Galium plant response rating” value (galium; [6]) was 60, the “Plant response rating, Galium” value (galium; [7]) was 85 and the “Plant response rating (0 to 100), Galium” value (galium; 250 g ai/ha, postemergence) was 95. For the same compound, the “Plant response rating, Galium” value (galium; [8]) was 65, the “Crabgrass, Large plant response rating” value (large (Lg) crabgrass [1]; [6]) was 5 and the “Plant response rating, Crabgrass, Large” value (large (Lg) crabgrass [1]; [7]) was 15. For the same compound, the “Plant response rating (0 to 100), Crabgrass, Large” value (large (Lg) crabgrass [1]; 250 g ai/ha, postemergence) was 20, the “Plant response rating, Crabgrass, Large” value (large (Lg) crabgrass [1]; [8]) was 5 and the “Blackgrass plant response rating” value (blackgrass; [6]) was 5. The “Plant response rating, Blackgrass” value (blackgrass; [7]) was 10, the “Plant response rating (0 to 100), Blackgrass” value (blackgrass; 250 g ai/ha, postemergence) was 35 and the “Plant response rating, Blackgrass” value (blackgrass; [8]) was 5. For the same compound, the “Plant response rating, Rice” value (rice) was 20, the “Soybean plant response rating” value (soybean; [6]) was 90 and the “Plant response rating, Soybean” value (soybean; [7]) was 95. For the same compound, the “Plant response rating (0 to 100), Soybean” value (soybean; 250 g ai/ha, postemergence) was 90, the “Plant response rating, Soybean” value (soybean; [8]) was 95 and the “Lambsquarters plant response rating” value (lambsquarters; [6]) was 80. For the same compound, the “Plant response rating, Lambsquarters” value (lambsquarters; [7]) was 85, the “Plant response rating (0 to 100), Lambsquarters” value (lambsquarters; 250 g ai/ha, postemergence) was 95 and the “Plant response rating, Lambsquarters” value (lambsquarters; [8]) was 80. The “Ryegrass, Italian plant response rating” value (Italian ryegrass; [6]) was 5, the “Plant response rating, Ryegrass, Italian” value (Italian ryegrass; [7]) was 5 and the “Plant response rating (0 to 100), Ryegrass, Italian” value (Italian ryegrass; 250 g ai/ha, postemergence) was 5. For the same compound, the “Plant response rating, Ryegrass, Italian” value (Italian ryegrass; [8]) was 10, the “Crabgrass, Large plant response rating” value (large (Lg) crabgrass [2]; [9]) was 90 and the “Plant response rating, Crabgrass, Large” value (large (Lg) crabgrass [2]; 500 g ai/ha, 0 to 100 scale where 0 is no effect and 100 is complete control) was 90. The “Pigweed plant response rating” value (pigweed; 125 g ai/ha) was 100, the “Plant response rating, Pigweed” value (pigweed; 500 g ai/ha) was 100 and the “Barnyardgrass plant response rating (0 to 100 scale, 0 is no effect, 100 is complete control)” value (barnyardgrass [3]; 125 g ai/ha) was 80. The “Barnyardgrass plant response rating” value (barnyardgrass [3]; [5]) was 90, the “Nutsedge, Yellow plant response rating” value (yellow nutsedge; [6]) was 5 and the “Plant response rating, Nutsedge, Yellow” value (yellow nutsedge; [7]) was 30. For the same compound, the “Plant response rating (0 to 100), Nutsedge, Yellow” value (yellow nutsedge; 250 g ai/ha, postemergence) was 35, the “Plant response rating, Nutsedge, Yellow” value (yellow nutsedge; [8]) was 5 and the “Ragweed plant response rating” value (ragweed; [6]) was 25. The “Plant response rating, Ragweed” value (ragweed; [7]) was 55, the “Plant response rating (0 to 100), Ragweed” value (ragweed; 250 g ai/ha, postemergence) was 85 and the “Plant response rating, Ragweed” value (ragweed; [8]) was 40. The “Barnyardgrass plant response rating” value (barnyardgrass [4]; [6]) was 0, the “Plant response rating, Barnyardgrass” value (barnyardgrass [4]; [7]) was 10 and the “Plant response rating (0 to 100), Barnyardgrass” value (barnyardgrass [4]; 250 g ai/ha, postemergence) was 15. For the same compound, the “Plant response rating, Barnyardgrass” value (barnyardgrass [4]; [10]) was 5.

In the case of N#Cc1cccc(Oc2ncc(Cl)cn2)c1-n1cc(Cl)cn1 [Compound 72], the “Plant response rating, Wheat” value (wheat; [9]) is reported as 20, the “Wheat plant response rating” value (wheat; [11]) is reported as 60 and the “Plant response rating, Sedge, Umbrella” value (sedge, umbrella) is reported as 85. The “Plant response rating (0 to 100), Galium” value (galium; 125 g ai/ha, postemergence) was 95, the “Plant response rating (0 to 100), Galium” value (galium; 250 g ai/ha, postemergence) was 95 and the “Plant response rating, Galium” value (galium; [12]) was 75. The “Plant response rating, Galium” value (galium; [10]) was 80, the “Plant response rating (0 to 100), Crabgrass, Large” value (large (Lg) crabgrass [1]; 125 g ai/ha, postemergence) was 55 and the “Plant response rating (0 to 100), Crabgrass, Large” value (large (Lg) crabgrass [1]; 250 g ai/ha, postemergence) was 60. For the same compound, the “Plant response rating, Crabgrass, Large” value (large (Lg) crabgrass [1]; [12]) was 5, the “Plant response rating, Crabgrass, Large” value (large (Lg) crabgrass [1]; [10]) was 10 and the “Plant response rating (0 to 100), Blackgrass” value (blackgrass; 125 g ai/ha, postemergence) was 15. For the same compound, the “Plant response rating (0 to 100), Blackgrass” value (blackgrass; 250 g ai/ha, postemergence) was 15, the “Plant response rating, Blackgrass” value (blackgrass; [12]) was 10 and the “Plant response rating, Blackgrass” value (blackgrass; [10]) was 10. The “Plant response rating, Rice” value (rice) was 0, the “Plant response rating (0 to 100), Soybean” value (soybean; 125 g ai/ha, postemergence) was 90 and the “Plant response rating (0 to 100), Soybean” value (soybean; 250 g ai/ha, postemergence) was 95. The “Plant response rating, Soybean” value (soybean; [10]) was 80, the “Plant response rating (0 to 100), Lambsquarters” value (lambsquarters; 125 g ai/ha, postemergence) was 85 and the “Plant response rating (0 to 100), Lambsquarters” value (lambsquarters; 250 g ai/ha, postemergence) was 98. The “Plant response rating, Lambsquarters” value (lambsquarters; [12]) was 75, the “Plant response rating, Lambsquarters” value (lambsquarters; [10]) was 75 and the “Plant response rating (0 to 100), Ryegrass, Italian” value (Italian ryegrass; 125 g ai/ha, postemergence) was 10. The “Plant response rating (0 to 100), Ryegrass, Italian” value (Italian ryegrass; 250 g ai/ha, postemergence) was 10, the “Plant response rating, Ryegrass, Italian” value (Italian ryegrass; [12]) was 5 and the “Plant response rating, Ryegrass, Italian” value (Italian ryegrass; [10]) was 5. For the same compound, the “Plant response rating, Crabgrass, Large” value (large (Lg) crabgrass [2]; [9]) was 100, the “Plant response rating, Crabgrass, Large” value (large (Lg) crabgrass [2]; 500 g ai/ha, 0 to 100 scale, 0 no effect, 100 complete control) was 100 and the “Plant response rating, Pigweed” value (pigweed; 125 g ai/ha) was 100. The “Plant response rating, Pigweed” value (pigweed; 500 g ai/ha) was 100, the “Plant response rating, Barnyardgrass” value (barnyardgrass [3]; [9]) was 80 and the “Barnyardgrass plant response rating” value (barnyardgrass [3]; [11]) was 100. For the same compound, the “Plant response rating (0 to 100), Nutsedge, Yellow” value (yellow nutsedge; 125 g ai/ha, postemergence) was 0, the “Plant response rating (0 to 100), Nutsedge, Yellow” value (yellow nutsedge; 250 g ai/ha, postemergence) was 10 and the “Plant response rating, Nutsedge, Yellow” value (yellow nutsedge; [12]) was 0. The “Plant response rating, Nutsedge, Yellow” value (yellow nutsedge; [10]) was 0, the “Plant response rating (0 to 100), Ragweed” value (ragweed; 125 g ai/ha, postemergence) was 60 and the “Plant response rating (0 to 100), Ragweed” value (ragweed; 250 g ai/ha, postemergence) was 60. The “Plant response rating, Ragweed” value (ragweed; [12]) was 40, the “Plant response rating, Ragweed” value (ragweed; [10]) was 40 and the “Plant response rating (0 to 100), Barnyardgrass” value (barnyardgrass [4]; 125 g ai/ha, postemergence) was 10. For the same compound, the “Plant response rating (0 to 100), Barnyardgrass” value (barnyardgrass [4]; 250 g ai/ha, postemergence) was 40, the “Plant response rating, Barnyardgrass” value (barnyardgrass [4]; [12]) was 5 and the “Plant response rating, Barnyardgrass” value (barnyardgrass [4]; [10]) was 5.
